Test results reported in PubChem BioAssay (NCI).
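Method: 48-hour compound exposure of cells in 96-well plates, five concentrations, linear interpolation of endpoints. TGI denotes the concentration required for complete inhibition of growth.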

What was measured:
Experiment in all cases: growth of human tumour cells (NCI), 48 h
DLD-1 colon = test system: DLD-1 colon
DMS 114 small cell lung = test system: DMS 114 small cell lung
HOP-18 NSCLC = test system: HOP-18 NSCLC
KM20L2 colon = test system: KM20L2 colon
LXFL 529 NSCLC = test system: LXFL 529 NSCLC
M19-MEL melanoma = test system: M19-MEL melanoma
SK-MEL-5 melanoma = test system: SK-MEL-5 melanoma
SNB-78 CNS = test system: SNB-78 CNS
U251 CNS = test system: U251 CNS
XF 498 CNS = test system: XF 498 CNS
RXF-631 renal = test system: RXF-631 renal
DMS 273 small cell lung = test system: DMS 273 small cell lung

COc1ccc2c(OC)c3ccoc3nc2c1O
TGI (DLD-1 colon): > 100 µM | TGI (DMS 114 small cell lung): > 100 µM | TGI (HOP-18 NSCLC): > 100 µM | TGI (KM20L2 colon): > 100 µM | TGI (LXFL 529 NSCLC): > 100 µM | TGI (M19-MEL melanoma): > 100 µM | TGI (SK-MEL-5 melanoma): > 100 µM | TGI (SNB-78 CNS): > 100 µM | TGI (U251 CNS): > 100 µM | TGI (XF 498 CNS): > 100 µM

CC1CCCc2c(-c3ccc(Cl)cc3)nc(N)c(C#N)c21 (stereo not given)
TGI (SK-MEL-5 melanoma): 38.5 µM | TGI (U251 CNS): > 100 µM

CC(=NNC(=S)Nc1ccccc1C)c1cccc(C(C)=NNC(=S)Nc2ccccc2C)n1
TGI (SK-MEL-5 melanoma): > 100 µM | TGI (U251 CNS): > 100 µM

COc1c(O)cc(/C=C/c2cc(O)cc3c2[C@@]2(C(=O)O3)c3c(O)cc(O)cc3OC2c2cccc(O)c2)cc1O (stereo not given in full)
TGI (SK-MEL-5 melanoma): 72.1 µM | TGI (U251 CNS): > 100 µM

Cc1ccc(-c2c(C#N)c(-c3ccc(N(C)C)cc3)c(C#N)c(=O)n2NS(=O)(=O)c2ccccc2)cc1
TGI (SK-MEL-5 melanoma): 36.8 µM | TGI (U251 CNS): > 100 µM

O=C1/C(=C/c2cccc([N+](=O)[O-])c2)COc2ccccc21
TGI (DLD-1 colon): 9.56 µM | TGI (DMS 114 small cell lung): 8.14 µM | TGI (HOP-18 NSCLC): 24.8 µM | TGI (KM20L2 colon): > 100 µM | TGI (LXFL 529 NSCLC): 7.79 µM | TGI (M19-MEL melanoma): 5.49 µM | TGI (RXF-631 renal): 31.7 µM | TGI (SK-MEL-5 melanoma): 4.99 µM | TGI (SNB-78 CNS): > 100 µM | TGI (U251 CNS): 6.83 µM

COc1ccc(CSCc2cc(OC)c(OC)c(OC)c2)cc1
TGI (SK-MEL-5 melanoma): > 100 µM | TGI (U251 CNS): > 100 µM

Fc1ccc(C(OCCN2CCC3CCC(C2)N3CCCc2ccccc2)c2ccc(F)cc2)cc1 (stereo not given)
TGI (SK-MEL-5 melanoma): 3.22 µM | TGI (U251 CNS): 15.1 µM

C1=CCN(c2ccccc2)CC1
TGI (DLD-1 colon): > 100 µM | TGI (DMS 114 small cell lung): > 100 µM | TGI (DMS 273 small cell lung): > 100 µM | TGI (HOP-18 NSCLC): > 100 µM | TGI (KM20L2 colon): > 100 µM | TGI (LXFL 529 NSCLC): 43.3 µM | TGI (RXF-631 renal): > 100 µM | TGI (SK-MEL-5 melanoma): > 100 µM | TGI (SNB-78 CNS): > 100 µM | TGI (U251 CNS): > 100 µM | TGI (XF 498 CNS): 40.6 µM

CCC(=O)N(c1ccccc1)C(C)CN1CCC(O)(c2ccccc2)CC1 (stereo not given)
TGI (SK-MEL-5 melanoma): > 100 µM | TGI (U251 CNS): > 100 µM

CCN(CC)CCCCC1CCN(CC(=O)N2c3ccccc3NC(=O)c3ccccc32)CC1
TGI (DLD-1 colon): > 100 µM | TGI (DMS 114 small cell lung): > 100 µM | TGI (DMS 273 small cell lung): > 100 µM | TGI (LXFL 529 NSCLC): > 100 µM | TGI (M19-MEL melanoma): > 100 µM | TGI (RXF-631 renal): > 100 µM | TGI (SK-MEL-5 melanoma): > 100 µM | TGI (SNB-78 CNS): > 100 µM | TGI (XF 498 CNS): > 100 µM

O=C(Nc1ccccc1)N1CCNC1=S
TGI (SK-MEL-5 melanoma): > 100 µM | TGI (U251 CNS): > 100 µM

Cn1c(=O)nc2n(CCO)c(-c3ccccc3)c(-c3ccccc3)nc-2c1=O
TGI (SK-MEL-5 melanoma): > 100 µM | TGI (U251 CNS): > 100 µM

NN/C(=N\S(=O)(=O)c1cc(Cl)c(Oc2ccc([N+](=O)[O-])cc2Cl)c(Cl)c1)Nc1ccc(Cl)cc1
TGI (SK-MEL-5 melanoma): 29.4 µM | TGI (U251 CNS): 30.8 µM

COC(=O)/C=C/c1cc(OC)c2c(c1)C(C(=O)OC)C(c1ccc(OC)c(OC)c1)O2 (stereo not given)
TGI (SK-MEL-5 melanoma): > 100 µM | TGI (U251 CNS): > 100 µM

CN1CC=C(OP(=O)(NCc2ccccc2)N(CCCl)CCCl)CC1 (stereo not given)
TGI (U251 CNS): > 100 µM

CC(=O)OC1[C@H]2c3cc4c(cc3CN3CCC(C[C@@H]1OC(C)=O)C23)OCO4 (stereo not given in full)
TGI (DLD-1 colon): > 75 µM | TGI (DMS 114 small cell lung): > 75 µM | TGI (DMS 273 small cell lung): > 75 µM | TGI (KM20L2 colon): > 75 µM | TGI (LXFL 529 NSCLC): > 75 µM | TGI (M19-MEL melanoma): > 75 µM | TGI (SNB-78 CNS): > 75 µM | TGI (U251 CNS): > 75 µM

CCCCCCC(N)(CCCCCC)C(=O)Nn1c(C)ccc1C
TGI (SK-MEL-5 melanoma): > 100 µM | TGI (U251 CNS): > 100 µM

O=C1/C(=C/c2cccc([N+](=O)[O-])c2)CCCc2ccccc21
TGI (U251 CNS): 20.9 µM

COc1cc(C2c3cccc4cccc(c34)C3CCC(=O)N32)cc(O)c1O (stereo not given)
TGI (U251 CNS): > 50 µM

CSc1nc(C)cc(Nc2ccc(O)c(CN3CCCCC3)c2)n1
TGI (SK-MEL-5 melanoma): > 100 µM

Cc1ccc2c(c1)C(C1Cc3c(C)cccc3C1=O)OC2=O (stereo not given)
TGI (SK-MEL-5 melanoma): > 100 µM | TGI (U251 CNS): > 100 µM

N#Cc1c(-c2ccccc2)c(C#N)c(=O)n(NS(=O)(=O)c2ccccc2)c1O
TGI (SK-MEL-5 melanoma): > 100 µM | TGI (U251 CNS): > 100 µM

O=c1c2cc(I)ccc2nc(-c2cccs2)n1Nc1ccccc1
TGI (SK-MEL-5 melanoma): > 100 µM | TGI (U251 CNS): > 100 µM

CCOC(=O)CCc1c(C(=O)OCC)[nH]c(/C=C2/NC(=O)C(C)=C2CC)c1C
TGI (SK-MEL-5 melanoma): 13.2 µM | TGI (U251 CNS): 24.1 µM

CC(=O)NNC=N/C(C#N)=C(\N)C#N
TGI (SK-MEL-5 melanoma): > 100 µM | TGI (U251 CNS): > 100 µM

O=C(/C=C/c1ccc(O)c(O)c1)NC(CO)C(=O)O (stereo not given)
TGI (SK-MEL-5 melanoma): > 100 µM | TGI (U251 CNS): > 100 µM

CC1=NC(=Cc2ccc(Cl)cc2)C(=O)N1n1c(-c2ccccc2)nc2ccccc2c1=O
TGI (SK-MEL-5 melanoma): > 100 µM

Cc1ccc(S(=O)(=O)N(c2ccccc2F)C2CCCCC2O)cc1 (stereo not given)
TGI (SK-MEL-5 melanoma): 56.9 µM | TGI (U251 CNS): > 100 µM

Oc1cn(-c2ccc(Cl)cc2)nc1-c1nnc(Nc2ccccc2)o1
TGI (SK-MEL-5 melanoma): 23.6 µM | TGI (U251 CNS): 34.1 µM

CC(=O)c1c2c(cc3c1CC1(Cc4cc5c(cc4C1)CCC5)C3)CCC2
TGI (SK-MEL-5 melanoma): > 100 µM | TGI (U251 CNS): > 100 µM

C/C(C=O)=N\Nc1cc(C)c2ccccc2n1
TGI (SK-MEL-5 melanoma): 29.9 µM | TGI (U251 CNS): 31.2 µM

Cc1sc2ncnc(NCCc3ccccc3)c2c1C
TGI (SK-MEL-5 melanoma): 12.2 µM | TGI (U251 CNS): 26.7 µM

Oc1ccccc1C=Nc1ccc(Oc2ccc(Cl)cc2)c(Cl)c1
TGI (SK-MEL-5 melanoma): 50.9 µM | TGI (U251 CNS): 50.5 µM

O=C(CNC(=O)OCc1ccccc1)NCCCCC(NC(=O)OCc1ccccc1)C(=O)O (stereo not given)
TGI (SK-MEL-5 melanoma): > 100 µM | TGI (U251 CNS): > 100 µM

COc1ccc(CCN2CCC(C#N)(c3ccc(OC)c(OC)c3)CC2)cc1OC
TGI (DLD-1 colon): > 100 µM | TGI (DMS 114 small cell lung): > 100 µM | TGI (DMS 273 small cell lung): > 100 µM | TGI (HOP-18 NSCLC): > 100 µM | TGI (KM20L2 colon): > 100 µM | TGI (LXFL 529 NSCLC): > 100 µM | TGI (M19-MEL melanoma): > 100 µM | TGI (SK-MEL-5 melanoma): > 100 µM | TGI (U251 CNS): > 100 µM | TGI (XF 498 CNS): > 100 µM

Cc1ccc2c(ccc3c[n+]4ccccc4c(C)c32)c1
TGI (SK-MEL-5 melanoma): 2.47 µM | TGI (U251 CNS): 12.1 µM

COc1ccc(NC=O)c(C(O)CCNC(C)=O)c1 (stereo not given)
TGI (SK-MEL-5 melanoma): > 100 µM | TGI (U251 CNS): > 100 µM

N[C@@H]1C[C@H](N)c2c(Cl)sc(Cl)c21
TGI (SK-MEL-5 melanoma): > 100 µM | TGI (U251 CNS): > 100 µM

C[N+](C)(C)CC1Cc2ccccc2C1=O (stereo not given)
TGI (SK-MEL-5 melanoma): > 10 µM | TGI (U251 CNS): > 10 µM

N#C/C(=C\c1ccc(Cl)cc1)c1nc2ccccc2c(=O)[nH]1
TGI (SK-MEL-5 melanoma): > 100 µM | TGI (U251 CNS): > 100 µM

CCOP(=O)(CS(C)=O)O[C@@H]1C[C@H](C)CC[C@H]1C(C)C (stereo not given in full)
TGI (SK-MEL-5 melanoma): 6.85 µM | TGI (U251 CNS): 16.1 µM

O=C(Cc1ccccc1)N/N=C(/CCN1CCCC1)CC(c1ccccc1)c1c(O)c2ccccc2oc1=O (stereo not given)
TGI (SK-MEL-5 melanoma): > 100 µM | TGI (U251 CNS): > 100 µM

CC1C2CC(C(C3C(=O)C4CC3C(C)(C)C4C)C2=O)C1(C)C (stereo not given)
TGI (SK-MEL-5 melanoma): > 100 µM | TGI (U251 CNS): > 100 µM

COc1ccc2c(c1)c(Cc1c(C)n(C)c3ccc(OC)cc13)c(C)n2C
TGI (DLD-1 colon): > 100 µM | TGI (DMS 114 small cell lung): > 100 µM | TGI (DMS 273 small cell lung): > 100 µM | TGI (HOP-18 NSCLC): > 100 µM | TGI (KM20L2 colon): > 100 µM | TGI (LXFL 529 NSCLC): > 100 µM | TGI (M19-MEL melanoma): > 100 µM | TGI (SK-MEL-5 melanoma): > 100 µM | TGI (SNB-78 CNS): > 100 µM | TGI (U251 CNS): > 100 µM | TGI (XF 498 CNS): > 100 µM
